Results as given in US6548510B1, “Pharmaceutical composition containing deoxypeganine for the treatment of nicotine dependence” (priority 1999, dated 2003).

Legend:
smokers = test: Influence of deoxypeganine on the smoking of healthy subjects; type: in vivo, human; conditions: for Cigarette consumption after administration of 50 mg of deoxypeganine HCl/day: subject (smoker), 50 mg/day, administration period 24 hours
Method: Example: Influence of deoxypeganine on the smoking of healthy subjects
In the context of the testing of a deoxypeganine-containing formulation which releases about 50 mg of deoxypeganine hydrochloride per day in vivo, in addition to other subjects two smokers were also used as test subjects, as “smoking” was not an exclusion criterion in the testing. […] The administration period was 24 hours.

acetylcholinesterase = acetylcholinesterase (Homo sapiens, UniProt P22303); conditions: cited from earlier work
monoamine oxidase = conditions: cited from earlier work
[1] = in contrast to neostigmine; cited from earlier work

acetylcholinesterase, sequence (P22303 32-614, species assumed): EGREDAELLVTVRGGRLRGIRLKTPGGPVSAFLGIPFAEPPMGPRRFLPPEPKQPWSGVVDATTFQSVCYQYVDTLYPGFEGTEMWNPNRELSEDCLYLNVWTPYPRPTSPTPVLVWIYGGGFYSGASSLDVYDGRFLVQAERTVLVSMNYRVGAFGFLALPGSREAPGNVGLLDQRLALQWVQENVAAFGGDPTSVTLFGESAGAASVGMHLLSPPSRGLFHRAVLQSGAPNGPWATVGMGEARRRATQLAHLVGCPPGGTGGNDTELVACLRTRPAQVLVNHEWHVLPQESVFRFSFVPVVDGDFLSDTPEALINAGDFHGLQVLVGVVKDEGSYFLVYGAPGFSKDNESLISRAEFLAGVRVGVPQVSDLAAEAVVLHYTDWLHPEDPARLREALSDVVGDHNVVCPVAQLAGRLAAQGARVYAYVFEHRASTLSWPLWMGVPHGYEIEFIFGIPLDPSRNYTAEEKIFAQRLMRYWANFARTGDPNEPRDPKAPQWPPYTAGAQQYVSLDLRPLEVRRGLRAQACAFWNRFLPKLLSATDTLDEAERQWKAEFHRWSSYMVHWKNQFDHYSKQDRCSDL

Structure (SMILES): Cl.c1ccc2c(c1)CN1CCCC1=N2 [deoxypeganine HCl, deoxypeganine hydrochloride]
- Cigarette consumption after administration of 50 mg of deoxypeganine HCl/day (smokers; without deoxypeganine 22 cigarettes/day (mean of n = 3)): 3 cigarettes
- Cigarette consumption after administration of 50 mg of deoxypeganine HCl/day (smokers; without deoxypeganine 41 cigarettes/day (mean of n = 5)): 6 cigarettes
- Desire for cigarettes (smokers; two smokers, formulation releasing about 50 mg of deoxypeganine hydrochloride per day, 24 hours): obviously suppressed

Structure (SMILES): c1ccc2c(c1)CN1CCCC1=N2 [deoxypeganine]
- Reduction in cigarette consumption (smokers; single administration of 50 mg/day): considerable reduction
- Cholinesterase inhibitory action in comparison to physostigmine (acetylcholinesterase; based on the unit of weight): somewhat lower
- Acetylcholinesterase inhibition (acetylcholinesterase; reversibly acting cholinesterase inhibitor): inhibits
- Monoamine oxidase inhibition (monoamine oxidase): inhibits
- Blood-brain barrier crossing [1]: crosses the blood-brain barrier
